# Reference: patent publication US20020086027A1, “Composition and method for enhancing immunological memory response” (priority 1998, published 2002)
# Columns and labels:
# [1] = test system: T cell lines; assay: Intracellular cAMP levels in T cell lines; format: cell-based; conditions: preliminary experiments
# Text: Several effects of POX on T cell signaling pathways have been reported. […] A major consequence of inhibition of phosphodiesterase is an increase in the levels of intracellular cAMP. […] This raises the possibility that although dbcAMP mimics POX in its effects on T cell priming, the precise molecular pathways involved may differ.
# [2] = test system: human T cells; assay: Primary alloproliferative response of responder PBMCs to irradiated MHC-mismatched stimulator PBMCs ([3H]thymidine incorporation); format: cell-based
# Method: In this system, we have used responses to first exposure as an indication of primary responses. When cells stimulated in this fashion are rested in culture and then restimulated with the same stimulator PBMCs, the 'recall' response measured are taken as an indication of immune memory. Proliferation is measured by the incorporation of radioactive tritiated thymidine in dividing cells. PBMCs from HLA-mismatched individuals were separated using density-gradient centrifugation on Ficoll-Paque (Pharmacia, Uppsala, Sweden). Stimulator PBMCs were used in titrated doses after g-irradiation (200 rads). For the primary proliferative alloresponses, stimulator in graded doses were used with 1-3×10^5 responders per well in 200 μl of RPMI-1640 (Life Technologies, Grand Island, N.Y.) fortified with L-glutamine (Life Technologies) and antibiotics, containing 10% heat-inactivated responder autologous serum. Cultures were incubated in a CO2 atmosphere for five days, pulsed with 0.5 uCi of (H^3)-thymidine (New England Nuclear, Boston, Mass.) for the last 8-12 hours of the assay and harvested onto glass fiber filters for counting cell-incorporated thymidine (Betaplate; Wallac, Finland). results are expressed as mean cpm±SE for triplicate cultures. Dibutyryl cyclic AMP (dbcAMP), pentoxifylline (POX), aphidicolin (all from Sigma Chemical Co., St Louis, Mo.) and recombinant IL-2 (Boehringer Manheim Corp., Manheim Germany) were added singly or together to the culture in various doses as indicated during priming and in primary alloresponse assays. […] Sigma Chemical Co.) at room temperature for 20 minutes, washed extensively and used. PBMCs from MHC-mismatched donors were used as responder-stimulator pairs. Stimulator cells were used after γ-irradiation (200 rad) at various concentrations, as shown. Proliferation assays were set up as parallel cultures and were pulsed and harvested as below on different days when necessary for the analyses of the kinetics of the response. Where appropriate, cyclosporin A (CsA, Sandoz, Milan, Italy), aphidicolin (Aph, Sigma Chemical Co., and/or pentoxifylline ([…], Sigma Chemical Co.) Were added at the concentrations indicated, or PFA-fixed PBMCs were used. The plated were pulsed with 0.5 to 1 μCi of (^3H)thymidine ([^3H]TdR. Amersham, Little Chalfont, U.K.) During the last 12 to 16 h of the assay (4 days for a recall assay and 6 days for a primary assay, unless indicated otherwise). [^3H] TdR incorporation was measured by harvesting the cultures on glass-fibers and counting in a scintillation counter (Betaplate: LKB-Pharmacia. Uppsala, […]). The results are expressed as mean cpm±SE of triplicate cultures.
# [3] = test system: mercuric chloride-induced arthritis; conditions: rats; cited from earlier work
# [4] = test system: human T cells; assay: Response of primed cells to IL-2 or PHA; format: cell-based; conditions: for response of primed cells to PHA: primed in presence vs absence of 100 ug/ml drug
# Method: For priming in vitro, responder PBMCs were incubated for 72 or 144 h at a ratio of either 1:1 or 2:1 respectively, with stimulator PBMCs. Where appropriate, CsA. Aph. and/or Trental were added at the concentrations indicated, of PFA-fixed PBMCs were used instead.
# [5] = test system: experimental autoimmune encephalomyelitis; conditions: rat, in vivo; cited from earlier work
# [6] = test system: CD25+ CD4 T cells; assay: Flow cytometry of CD25 and Fas (CD95) on primed cells; format: cell-based, human
# Method: (§1) For analysis of cell surface markers, primed cell populations separated on Ficoll-Paque gradients were used. […] Briefly, 1-3×10^5 cells per well were stained with primary antibodies at 4° C., followed by appropriately labeled secondary reagents if required. Samples were analyzed using a Bryte flow cytometer (bio-Rad, Hemel Hampstead, UK). Antibodies to the T cell markers CD3 (OKT3), CD4 (OKT4), and to the activation markers CD25 and Fas (CD95) were used for staining. To detect apoptosis using propidium iodide (PI, Sigma Chemical Co.), antibody-stained cells were fixed and permeabilized with 70% ethanol, washed, and PI […] added just before cytometric analysis. Data were analyzed using FlowJo software (Treestar, San Jose, Calif.).
# The phenotype of CD4 T cells activated during priming in vitro was examined next using various markers associated with T cell activation. Antibodies against CD25 (IL-2Ra), CD26, CD45RO, CD69 and gp240 were used, but except for CD25, none of the other markers gave consistent and reliable results (data not shown). CD25 expression on CD4 T cells in the responder populations was examined in a two-color flow cytometric analysis at two separate time points,—at the end of six days of priming and after two further rest days in culture after washing and resuspension in resh medium without any stimuli. Most CD25-expressing cells in the primed cultures were CD4 T cells. […] The frequency of CD25 expression increased in the PBMC-primed responders (FIG. 17B) and this percentage was lower if POX (100 μg/ml) was present during priming (FIG. 17C). […] Similar data were observed if dbcAMP was present during priming (data not shown). It can be seen that the proportion of CD25* cells was reproducibly lower if POX was present during priming with allo-PBMCs. However, after 48 hours of rest in culture, the frequency of CD25* cells declined in the populations primed in the absence of POX, while it went up in the group primed under POX cover.
# [7] = test system: CD25+ primed T cells; assay: Propidium iodide staining for apoptosis of CD25+ primed T cells; format: cell-based, human; conditions: over the 48 hour rest period after priming with drug
# Method: as §1
# The differences between the kinetics of CD25 expression over two days of rest culture prompted the question of whether this was linked to effects of POX on the survival of T cells activated during priming. Almost all CD25^+ cells generated during priming were CD4 T cells (FIG. 17A). therefore, responder populations primed variously were stained in a two-color flow cytometric analysis for CD25 and Fas, since Fas engagement is involved in activation induced T cell death. The frequency and level of Fas expression in the CD25^+ population was unchanged in the presence (FIG. 20, panels B and D) or absence (panels A and C) of POX during priming. […]
smiles,measurement,setting,value
"CC(=O)CCCCn1c(=O)c2c(ncn2C)n(C)c1=O [POX, pentoxifylline]",intracellular cAMP levels,[1],does not increase
same,primary proliferative response,[2]; Trental 100 ug/ml added to cells on 1 μg/ml Aph,further decreases
same,kinetics of primary response,"[2]; days 4-10, drugs present throughout",declines equivalently
same,primary proliferative response,[2]; drug 100 ug/ml present during primary alloresponse,declines
same,primary proliferative response,"[2]; drug 100 ug/ml present during primary alloresponse, listed as Trental",reduced significantly
same,primary response after drug removal,"[2]; drugs removed on day 6, pulsed days 8 and 10",no increase
same,primary proliferative response,"[2]; increasing doses 1-300 μg/ml, preliminary titrations",decrease
same,primary response to PF-fixed PBMCs,"[2]; stimulators fixed with 0.05% PF, POX 100 ug/ml",not enhanced
same,protection against arthritis,[3],significant protection
same,response of primed cells to IL-2,[4]; primed in presence vs absence of 100 μg/ml Trental,to the same extent
same,response of primed cells to PHA,[4],does not bring about any enhancement
same,response of primed cells to PHA,[4]; listed as Trental,comparable
same,protection against EAE,[5],significant protection
same,frequency of CD25 expression,[6]; after two further rest days in culture without stimuli,increased frequency
same,frequency of CD25 expression,"[6]; at end of six days of priming, POX 100 μg/ml",lower
same,frequency and level of Fas expression in CD25+ population,[6]; presence vs absence of POX during priming,unchanged
same,proportion of apoptotic cells in the CD25+ population,[7],does not increase significantly
